Results: paper PMC10977697 (PLOS ONE, 2024)
Where no end group is shown, it is not given here.

System: EpCAM
Assay: Spot phage ELISA, EpCAM
Type: binding, human
Settings: spot phage ELISA signal-to-noise on EpCAM

Substance	S/N
GCPRILMRCKQDSDCRPVCG (disulfide (positions not given here)) [EpCAM EET I-II 34]	15.7
GCRNTMVRCKQDSDCLAGCVCYFDPSCG (disulfide (positions not given here)) [EpCAM EET I-II 33]	15.8
GCPRILMRCKQDSDLSSWLCLCCYDSVC (disulfide (positions not given here)) [EpCAM EET I-II 37]	9.5
GPTQSHYGQCGGRGYVGAIACSGTTCQFTPPRSSQCLPGAS (disulfide (positions not given here)) [EpCAM CBD 87]	6.1
GCHRWGILCKQDSDCLAGCVCWQQGQCG (disulfide (positions not given here)) [EpCAM EET I-II 35]	15
GCPRILMRCKQDSDCQPICG (disulfide (positions not given here)) [EpCAM EET I-II 21]	19.1
GPTQSHYGQCGGEGYKGAIVCSGTTCQQTKLQGSQCLPGAS (disulfide (positions not given here)) [EpCAM CBD 75]	7.7
GCKNDKIRCKQDSDCLAGCVCWEDPSCG (disulfide (positions not given here)) [EpCAM EET I-II 22]	18.9
GPTQSHYGQCGGGGYIGAMPCSGTTCQPVRIP*SQCLPGAS (disulfide) [EpCAM CBD 26]	16.6
GPTQSHYGQCGGYGYPGLACSGTTCQYTYYMRSQCLPGAS (disulfide (positions not given here)) [EpCAM CBD 71]	8.3
GCPRILMRCKQDSDCHWFCG (disulfide (positions not given here)) [EpCAM EET I-II 15]	20.7
GCIKNNLRCKQDSDCLAGCVCWYDAACG (disulfide (positions not given here)) [EpCAM EET I-II 32]	16.9
GPTQSHYGQCGGRGYFGAIICSGTTCQYVQKHMSQCLPGAS (disulfide (positions not given here)) [EpCAM CBD 9]	20.9
GPTQSHYGQCGGTGYVGMFKCSGTTCQYVYSSASQCLPGAS (disulfide (positions not given here)) [EpCAM CBD 67]	8.5
GPTQSHYGQCGGMGYHGAISCSGTTCQPIIFPVSQCLPGAS (disulfide (positions not given here)) [EpCAM CBD 19]	17.9
GPTQSHYGQCGGTGYVGYTRCSGTTCQTVPAVMSQCLPGAS (disulfide (positions not given here)) [EpCAM CBD 16]	18.9
GPTQSHYGQCGGPGYTGVIKCSGTTCQFVNLPRSQCLPGAS (disulfide (positions not given here)) [EpCAM CBD 51]	9.8
GCPRILMRCKQDSDCLCGCV (disulfide (positions not given here)) [EpCAM EET I-II 11]	21.4
GPTQSHYGQCGGRGYPGAMVCSGTTCQWHQPLRSQCLPGAS (disulfide (positions not given here)) [EpCAM CBD 60]	8.9
GPTQSHYGQCGGKGYPGYIVCSGTTCQMVNQSHSQCLPGAS (disulfide (positions not given here)) [EpCAM CBD 55]	9.4
GPTQSHYGQCGGRGYFGALRCSGTTCQYVTMIESQCLPGAS (disulfide (positions not given here)) [EpCAM CBD 80]	7.3

Substance	S/N
GPTQSHYGQCGGPGYYGAIVCSGTTCQHTFITHSQCLPGAS (disulfide (positions not given here)) [EpCAM CBD 57]	9.3
GCPRILMRCKQDSDCQPVCG (disulfide (positions not given here)) [EpCAM EET I-II 10]	21.9
GPTQSHYGQCGGLGYQGGMMCSGTTCQYVPIWRSQCLPGAS (disulfide (positions not given here)) [EpCAM CBD 17]	18.6
GCPRILMRCKQDSDCLAGCVLNGLVSWYT (disulfide (positions not given here)) [EpCAM EET I-II 38]	7.1
GCPRILMRCKQDSDCLAGCVCWPGWPCG (disulfide (positions not given here)) [EpCAM EET I-II 19]	19.6
GPTQSHYGQCGGXGYNGXIVCSGTTCQYXRKSKSQCLPGAS (disulfide) [EpCAM CBD 61]	8.8
GPTQSHYGQCGGHGYVGMIACSGTTCQYLQKVPSQCLPGAS (disulfide (positions not given here)) [EpCAM CBD 13]	19.5
GPTQSHYGQCGGNGYMGVISCSGTTCQEIQMQRSQCLPGAS (disulfide (positions not given here)) [EpCAM CBD 90]	4.8
GPTQSHYGQCGGVGYVGSILCSGTTCQFTKVRTSQCLPGAS (disulfide (positions not given here)) [EpCAM CBD 50]	9.9
GPTQSHYGQCGGPGYLGVIVCSGTTCQYQLRPTSQCLPGAS (disulfide (positions not given here)) [EpCAM CBD 70]	8.4
GCRARPLVCKQDSDCLAGPNGFCG (disulfide (positions not given here)) [EpCAM EET I-II 24]	18.6
GPTQSLPGFCGGIGYVGGRYCSGTTCQLPEKLKSQCLPGAS (disulfide (positions not given here)) [EpCAM CBD 1]	26.7
GPTQSHYGQCGGSGYWGAIACSGTTCQMVKLPYSQCLPGAS (disulfide (positions not given here)) [EpCAM CBD 69]	8.5
GPTQSHYGQCGGIGYMGAIQCSGTTCQPIFLRNSQCLPGAS (disulfide (positions not given here)) [EpCAM CBD 6]	22.6
GPTQSHYGQCGGFGYMGVMVCSGTTCQWIIRPFSQCLPGAS (disulfide (positions not given here)) [EpCAM CBD 25]	16.9
GPTQSHYGQCGGLGYHGAIMCSGTTCQYAPIVTSQCLPGAS (disulfide (positions not given here)) [EpCAM CBD 52]	9.8
GPTQSHYGQCGGPGYVGSIMCSGTTCQFQYIPTSQCLPGAS (disulfide (positions not given here)) [EpCAM CBD 23]	16.9
GCFRHYVRCKQDSDCLAGCVCWFDWSCG (disulfide (positions not given here)) [EpCAM EET I-II 13]	20.8
GPTQSHYGQCGGRGYPGAVICSGTTCQYHQATRSQCLPGAS (disulfide (positions not given here)) [EpCAM CBD 73]	7.8
GPTQSHYGQCGGRGYVGALMCSGTTCQYIAKPVSQCLPGAS (disulfide (positions not given here)) [EpCAM CBD 4]	23.5
GPTQSHYGQCGGFGYQGAVVCSGTTCQFTHLGHSQCLPGAS (disulfide (positions not given here)) [EpCAM CBD 88]	5.9

Substance	S/N
GCPRILMRCKQDSDCLAGCGLSSGLVVW (disulfide (positions not given here)) [EpCAM EET I-II 1]	24
GPTQSHYGQCGGEGYLGALRCSGTTCQYTQIKPSQCLPGAS (disulfide (positions not given here)) [EpCAM CBD 8]	21.8
GCPRILMRCKQDSELSSWLCLCCSGSLC (disulfide (positions not given here)) [EpCAM EET I-II 26]	18.3
GPTQSHYGQCGGHGYHGWAICSGTTCQERIRHLSQCLPGAS (disulfide (positions not given here)) [EpCAM CBD 41]	11.6
GPTQSHYGQCGGSGYPGHFLCSGTTCQTPRSWSSQCLPGAS (disulfide (positions not given here)) [EpCAM CBD 82]	6.9
GPTQSHYGQCGGGGYPGAIMCSGTTCQFVMAHKSQCLPGAS (disulfide (positions not given here)) [EpCAM CBD 77]	7.5
GCPRSHVRVFFSCKQDSDCLAGCVCFQVVC (disulfide (positions not given here)) [EpCAM EET I-II 31]	17.4
GPTQSHYGQCGGLGYLGMMQCSGTTCQYIQREISQCLPGAS (disulfide (positions not given here)) [EpCAM CBD 29]	15.7
GPTQSHYGQCGGQGYHGMIRCSGTTCQWVPMVRSQCLPGAS (disulfide (positions not given here)) [EpCAM CBD 39]	12.6
GPTQSHYGQCGGKGYFGIRCSGTTCQMVTYKPSQCLPGAS (disulfide (positions not given here)) [EpCAM CBD 33]	15.1
GCPRILMRCKQDSDCLAGCVCWPGWPCG (disulfide (positions not given here)) [EpCAM EET I-II 7]	22
CKQDSDCLLVCLGPNGFCG (disulfide (positions not given here)) [EpCAM EET I-II 28]	18
GPTQSHYGQCGGRGYWGMAICSGTTCQAQTRMISQCLPGAS (disulfide (positions not given here)) [EpCAM CBD 42]	11.4
GPTQSHYGQCGGQGYHGAILCSGTTCQYTMISRSQCLPGAS (disulfide (positions not given here)) [EpCAM CBD 5]	22.8
GPTQSHYGQCGGLGYAGAIVCSGTTCQYTIRNPSQCLPGAS (disulfide (positions not given here)) [EpCAM CBD 65]	8.6
GCPRILMRCKQDSDCLAGCVCPGNILCG (disulfide (positions not given here)) [EpCAM EET I-II 29]	17.9
GPTQSVIGPCGGIGYVGGRYCSGTTCQMPTSYRSQCLPGAS (disulfide (positions not given here)) [EpCAM CBD 35]	14.4
GPTQSHYGQCGGVGYHGAIQCSGTTCQEVKMTRSQCLPGAS (disulfide (positions not given here)) [EpCAM CBD 3]	23.5
GPTQSHYGQCGGHGYMGSIKCSGTTCQYVEIVPSQCLPGAS (disulfide (positions not given here)) [EpCAM CBD 66]	8.6
GPTQSHYGQCGGSGYHGAILCSGTTCQYVEVSRSQCLPGAS (disulfide (positions not given here)) [EpCAM CBD 10]	20.7
GCPRILMRCKQDSDCHWVCG (disulfide (positions not given here)) [EpCAM EET I-II 39]	6.6
